Experimental data from US6569878B1, “Substituted 4-amino-thiazol-2-yl compounds as cyclin-dependent kinase inhibitors” (Agouron Pharmaceuticals Inc., priority 1997, dated 2003).
pIC50, pKi: −log10 of the molar value.

Legend:
[1] = biological target: T1, complex of human CDK4 and cyclin D3 (Homo sapiens, UniProt P11802); assay: Inhibition of CDK4/cyclin D retinoblastoma kinase activity (D-type cyclin is D3); type: biochemical; conditions: superscript a: D-type cyclin is D3; apparent Ki; read-out: Ki CDK 4/D
T1 construct: made in house; host or cells: insect cells, co-infected with baculovirus
T1 sequence (P11802 whole entry): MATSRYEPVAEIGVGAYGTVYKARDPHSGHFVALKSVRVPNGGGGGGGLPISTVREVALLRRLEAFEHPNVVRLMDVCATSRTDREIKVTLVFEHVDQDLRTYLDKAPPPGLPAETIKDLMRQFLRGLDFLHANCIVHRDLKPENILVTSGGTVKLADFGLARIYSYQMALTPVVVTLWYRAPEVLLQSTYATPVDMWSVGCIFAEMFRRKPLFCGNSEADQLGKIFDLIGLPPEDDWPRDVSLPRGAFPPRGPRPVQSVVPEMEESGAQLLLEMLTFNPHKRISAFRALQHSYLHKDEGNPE
T1 sequence (P30281 whole entry partner): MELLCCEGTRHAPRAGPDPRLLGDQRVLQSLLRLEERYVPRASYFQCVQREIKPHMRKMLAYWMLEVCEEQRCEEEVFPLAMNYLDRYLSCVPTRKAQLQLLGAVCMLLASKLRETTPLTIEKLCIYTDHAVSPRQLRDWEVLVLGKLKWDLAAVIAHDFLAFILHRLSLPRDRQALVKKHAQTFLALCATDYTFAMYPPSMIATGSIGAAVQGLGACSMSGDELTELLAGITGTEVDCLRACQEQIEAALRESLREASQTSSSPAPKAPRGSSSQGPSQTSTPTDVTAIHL
Method in brief: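 Apparent Ki derived by fitting background-corrected activity to competitive (or, for tight binders, competitive tight-binding) equations with measured ATP Km. Rb phosphorylation by radiolabelled ATP was measured at 30°C, 20 min standard or 60 min at 5 nM complex for tight binders, via nitrocellulose capture and phosphorimager.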

CDK2/cyclin A = biological target: T2, CDK2/cyclin A (Homo sapiens, UniProt P24941); assay: Inhibition of CDK2/cyclin A retinoblastoma kinase activity; type: biochemical; conditions: read-out: Ki CDK 2/A
T2 construct: made in house; host or cells: CDK2: insect cells (baculovirus); cyclin A: E. coli, then limited proteolysis
Method in brief: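 Baculovirus-expressed CDK2 with excess proteolyzed cyclin A (or purified complex), 150 nM or 5 nM, phosphorylating an Rb fragment with 25 μM [32/33P]ATP, pH 7.4, 30° C, 20 min. Filter-captured radioactivity by phosphorimager; apparent Ki from fits to competitive or tight-binding competitive inhibition using measured ATP Km.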

[2] = biological target: T3, human CDK1 (cdc2) and cyclin B (Homo sapiens, UniProt P06493); assay: Inhibition of CDK1(cdc2)/cyclin B histone H1 kinase activity; type: biochemical; conditions: read-out: Ki CDK 1/B
T3 construct: purchased New England Biolabs (Beverly Mass.)
T3 sequence (P06493 whole entry): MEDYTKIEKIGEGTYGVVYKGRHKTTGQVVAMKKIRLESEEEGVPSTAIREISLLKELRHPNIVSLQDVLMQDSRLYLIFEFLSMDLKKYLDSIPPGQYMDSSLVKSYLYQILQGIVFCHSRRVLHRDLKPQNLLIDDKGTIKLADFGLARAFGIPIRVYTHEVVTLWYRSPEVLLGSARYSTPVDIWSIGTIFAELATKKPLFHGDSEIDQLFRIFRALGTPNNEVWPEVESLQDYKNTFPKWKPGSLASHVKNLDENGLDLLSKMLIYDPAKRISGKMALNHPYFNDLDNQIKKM
T3 sequence (P14635 whole entry partner): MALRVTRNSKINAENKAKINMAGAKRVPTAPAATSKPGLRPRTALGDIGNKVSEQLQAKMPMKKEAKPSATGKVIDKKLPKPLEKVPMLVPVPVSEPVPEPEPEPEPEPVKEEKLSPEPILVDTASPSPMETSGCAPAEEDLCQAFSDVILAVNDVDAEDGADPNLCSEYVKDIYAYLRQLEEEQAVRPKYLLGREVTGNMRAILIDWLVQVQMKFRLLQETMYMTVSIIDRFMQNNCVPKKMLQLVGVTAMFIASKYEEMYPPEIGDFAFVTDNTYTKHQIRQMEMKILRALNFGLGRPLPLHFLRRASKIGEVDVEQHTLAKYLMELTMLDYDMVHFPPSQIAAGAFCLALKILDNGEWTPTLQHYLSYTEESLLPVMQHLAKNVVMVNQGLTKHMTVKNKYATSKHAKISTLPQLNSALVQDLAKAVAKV
Procedure: Cyclin-dependent kinase activity was measured by quantifying the enzyme-catalyzed, time-dependent incorporation of radioactive phosphate from [^32P]ATP or [^33P]ATP into a protein substrate. Unless noted otherwise, assays were performed in 96-well plates in a total volume of 50 μL, in the presence of 10 mM HEPES (N-[2-hydroxyethyl]piperazine-N′-[2-ethanesulfonic acid]) (pH 7.4), 10 mM MgCl2, 25 μM adenosine triphosphate (ATP), 1 mg/mL ovalbumin, 5 μg/mL leupeptin, 1 mM dithiothreitol, 10 mM β-glycerophosphate, 0.1 mM sodium vanadate, 1 mM sodium fluoride, 2.5 mM ethylene glycol-bis(β-aminoethyl ether)-N,N,N′N′-tetraacetic acid (EGTA), 2% (v/v) dimethylsulfoxide, and 0.03-0.4 μCi [^32/33P]ATP per reaction. Reactions were initiated with enzyme, incubated at 30° C., and terminated after 20 minutes by the addition of ethylenediaminetetraacetic acid (EDTA) to 250 mM. The phosphorylated substrate was then captured on a nitrocellulose or phosphocellulose membrane using a 96-well filtration manifold, and unincorporated radioactivity was removed by repeated washing with 0.85% phosphoric acid. Radioactivity was quantified by exposing the dried membranes to a phosphorimager.
Apparent Ki values were measured by assaying enzyme activity in the presence of different inhibitor compound concentrations and subtracting the background radioactivity measured in the absence of enzyme. The kinetic parameters (kcat, Km for ATP) were measured for each enzyme under the usual assay conditions by determining the dependence of initial rates on ATP concentration. Inhibition data were fit to an equation for competitive inhibition using Kaleidagraph (Synergy Software), or were fit to an equation for competitive tight-binding inhibition using the software KineTic (BioKin, Ltd.).
The complex of human CDK1 (cdc2) and cyclin B was purchased from New England Biolabs (Beverly Mass.). Alternatively, a CDK1/glutathione-S-transferase-cyclin B1 complex was purified using glutathione affinity chromatography from insect cells that had been co-infected with the corresponding baculovirus expression vectors. The assay was executed as described above at 30° C. using 2.5 units of cdc2/cyclin B, 10 μg Histone H1 protein, and 0.1-0.3 μCi [^32/33P]ATP per assay. Phosphorylated histone substrate was captured by microfiltration on a phosphocellulose P81 membrane and quantified using a phosphorimager as described above. Ki values were measured using the described curve-fitting programs.

HCT116 = assay: Inhibition of cell growth, MTT assay, HCT116; type: cell-based, human; conditions: Homo sapiens; for pIC50 / IC90: HCT-116; for inhibition at 30 µM: HCT-116, at 30 μM
Method in brief: (§1)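 Cells rested 4 h after plating, then exposed to graded compound concentrations in 0.5% (v/v) DMSO for four to six days (cell-type dependent) at 37° C, 5% CO2. Viability was read by MTT (0.2 mg/mL final, 4 h at 37° C), with DMSO-solubilized formazan measured at 540 nm.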

SW-480 = assay: Inhibition of cell growth, MTT assay, SW-480; type: cell-based; conditions: Homo sapiens, SW480, SW-480, MTT assay
Procedure: Inhibition of cell growth was measured using the tetrazolium salt assay, which is based on the ability of viable cells to reduce 3-(4,5-dimethylthiazol-2-yl)-2,5-[2H]-diphenyltetrazolium bromide (MTT) to formazan (Mossman, Journal of Immunological Methods, vol. 65 (1983), pp. 55-58). The water-insoluble purple formazan product was then detected spectrophotometrically. Various cell lines (HCT-116, Saos-2, U2-OS, SW480, COLO-205, RXF-393, M14, MDA-MB-468, and MCF7) were grown in 96-well plates. Cells were plated in the appropriate medium at a volume of 135 μl/well in either McCoy's 5A Medium (for Saos-2, U2-OS, SW480, and HCT-116 cells), RPMI (for COLO-205, RXF-393, M14 cells), or Minimum Essential Medium Eagle (for MDA-MB-468 and MCF7 cells). Plates were incubated for four hours before addition of inhibitor compounds. Different concentrations of inhibitor compounds were added in 0.5% (v/v) dimethylsulfoxide (15 μL/well), and cells were incubated at 37° C. (5% CO2) for four to six days (depending on cell type). At the end of the incubation, MTT was added to a final concentration of 0.2 mg/mL, and cells were incubated for 4 hours more at 37° C. After centrifugation of the plates and removal of medium, the absorbance of the formazan (solubilized in dimethylsulfoxide) was measured at 540 nm. […] All results were compared to control cells treated only with 0.5% (v/v) dimethylsulfoxide.

U2-OS = assay: Inhibition of cell growth, MTT assay, U2-OS; type: cell-based; conditions: Homo sapiens, U2OS
Method in brief: as §1

Saos-2 = assay: Inhibition of cell growth, MTT assay, Saos-2; type: cell-based; conditions: Homo sapiens; Saos-2, MTT assay
Method in brief: as §1

| Compound | pKi [1] | pKi (CDK2/cyclin A) | pKi [2] | pIC50 (HCT116) | IC90 (HCT116) | pIC50 (SW-480) | IC90 (SW-480) | pIC50 (U2-OS) | IC90 (U2-OS) | inhibition at 30 µM (HCT116) | inhibition at 30 µM (SW-480) | pIC50 (Saos-2) | IC90 (Saos-2) | inhibition at 10 µM (SW-480; at 10 μM) | inhibition at 10 µM (HCT116; HCT-116, at 10 μM) |
| --- | --- | --- | --- | --- | --- | --- | --- | --- | --- | --- | --- | --- | --- | --- | --- |
| Nc1nc(Nc2ccc3nc[nH]c3c2)sc1C(=O)c1ccccc1[N+](=O)[O-] [A(9), [4-Amino-2-(1H-benzoimidazol-6-yl-amino)-thiazol-5-yl]-(2-nitro-phenyl)-methanone] | 7.00 | 6.64 | 7.28 | 4.70 | 30000 nM | 5.40 | 10000 nM |  |  |  |  |  |  |  |  |
| Cc1nc2ccc(Nc3nc(N)c(C(=O)c4ccccc4[N+](=O)[O-])s3)cc2[nH]1 [A(6), [4-Amino-2-(2-methyl-1H-benzoimidazol-6-ylamino)-thiazol-5-yl]-(2-nitro-phenyl)-methanone] | 6.82 | 6.53 | 7.28 | 4.70 | 30000 nM | 5.30 | 15000 nM |  |  |  |  |  |  |  |  |
| Nc1nc(Nc2cccnc2)sc1C(=O)c1ccccc1 [A(3), [4-Amino-2-(pyridin-3-ylamino)-thiazol-5-yl]-phenyl-methanone] | 5.70 | 5.21 | 5.46 |  |  |  |  |  |  | 41% | 15% |  |  |  |  |
| CN(C)c1ccc(Nc2nc(N)c(C(=O)c3ccccc3[N+](=O)[O-])s2)cc1 [C(4), [4-Amino-2-(4-dimethylamino-phenylamino)-thiazol-5-yl]-(2-nitro-phenyl)-methanone] | 7.02 | 6.09 | 7.05 | 6.15 | 30000 nM | 6.40 | 3000 nM |  |  |  |  |  |  |  |  |
| Nc1nc(Nc2ccccc2)sc1C(=O)c1ccccn1 [A(4), (4-Amino-2-phenylamino-thiazol-5-yl)-pyridin-2-yl-methanone] | 5.70 | 5.51 | 5.57 |  |  |  |  |  |  | 29% | 66% |  |  | 0% |  |
| Nc1nc(Nc2ccc(C(=O)O)cc2)sc1C(=O)c1ccccc1[N+](=O)[O-] [E(1), 4-[4-Amino-5-(2-nitro-benzoyl)-thiazol-2-ylamino]-benzoic Acid] | 6.38 | 6.49 | 7.52 |  |  |  |  |  |  | 17% | 23% |  |  |  | 17% |
| Nc1nc(NCCc2ccccc2)sc1C(=O)c1ccccc1[N+](=O)[O-] [C(5), (4-Amino-2-phenethylamino-thiazol-5-yl)-(2-nitro-phenyl)-methanone] | 6.85 | 6.11 | 6.53 | 5.22 | 25000 nM | 5.52 | 9000 nM |  |  |  |  |  |  |  |  |
| Cc1ccsc1C(=O)c1sc(Nc2ccc(C(=O)C3COC(=O)[C@H]3N)cc2)nc1N (stereo partly drawn) [C(45), trans-3RS-Amino-4RS-{4-[4-amino-5-(3-methyl-thiophene-2-carbonyl)-thiazol-2-ylamino]-benzoyl}-dihydro-furan-2-one] | 7.29 | 6.99 | 6.60 | 5.70 | 8000 nM |  |  | 5.26 | 12000 nM |  |  | 5.70 | 10000 nM |  |  |
| NC(=O)c1ccc(Nc2nc(N)c(C(=O)c3c(F)cccc3F)s2)cc1 [C(102), 4-[4-Amino-5-(2,6-difluoro-benzoyl)-thiazol-2-ylamino]-benzamide] | 7.68 | 7.31 | 7.77 | 5.96 | 2400 nM |  |  | 5.51 | 5400 nM |  |  | 6.06 | 2200 nM |  |  |

The remaining molecules from weak to strong by pKi [1], led by results:

| pKi [1] | pKi (CDK2/cyclin A) | pKi [2] | pIC50 (HCT116) | IC90 (HCT116) | pIC50 (SW-480) | IC90 (SW-480) | pIC50 (U2-OS) | IC90 (U2-OS) | Compound | inhibition at 30 µM (HCT116) | inhibition at 30 µM (SW-480) | pIC50 (Saos-2) | IC90 (Saos-2) | inhibition at 10 µM (SW-480; at 10 μM) | inhibition at 10 µM (HCT116; HCT-116, at 10 μM) |
| --- | --- | --- | --- | --- | --- | --- | --- | --- | --- | --- | --- | --- | --- | --- | --- |
| 5.80 | 5.32 |  |  |  | 4.66 |  |  |  | CN(C)c1ccc(Nc2nc(N)c(C(=O)c3ccccn3)s2)cc1 [I(19)] | 16% | 58% |  |  |  |  |
| 7.01 | 6.16 | 6.79 | 4.59 |  | 5.77 | 3000 nM |  |  | CCOC(=O)c1ccc(Nc2nc(N)c(C(=O)c3ccccc3[N+](=O)[O-])s2)cc1 [A(5), Ethyl 4-[4-Amino-5-(2-nitro-benzoyl)-thiazol-2-ylamino]-benzoate] | 85% |  |  |  |  |  |
| 7.68 | 8.07 | 7.55 | 5.96 | 2800 nM |  |  | 5.52 | 5200 nM | CNS(=O)(=O)c1ccc(Nc2nc(N)c(C(=O)c3sccc3C)s2)cc1 [C(114), 4-[4-Amino-5-(3-methyl-thiophene-2-carbonyl)-thiazol-2-ylamino]-N-methyl-benzenesulfonamide] |  |  | 5.89 | 4800 nM |  |  |
| 7.79 | 7.40 | 7.40 | 6.06 | 2700 nM |  |  | 5.40 | 8000 nM | Nc1nc(Nc2ccc(S(N)(=O)=O)cc2)sc1C(=O)c1c(F)cccc1C(F)(F)F [C(99), 4-[4-Amino-5-(2-fluoro-6-trifluoromethyl-benzoyl)-thiazol-2-ylamino]-benzenesulfonamide] |  |  | 5.96 | 2900 nM |  |  |
| 8.64 | 6.34 | 6.14 | 5.89 | 3000 nM |  |  | 5.46 | 5900 nM | Nc1nc(Nc2ccc(N3CCNCC3)cc2)sc1C(=O)c1c(Cl)cc(Cl)cc1Cl [J(1), [4-Amino-2-(4-piperazin-1-yl-phenylamino)-thiazol-5-yl]-(2,4,6-trichloro-phenyl)-methanone] |  |  | 6.00 | 5900 nM |  |  |
